# Structures can show the parent of a compound that is named as a salt.
# Experiments:
# [1] = test system: white blood cells; assay: White blood cell count in treated tumor-bearing mice; type: in vivo, C3H/He mice; details: 5-FU 100 mg/kg, day 4 post-treatment, mean ± S.E. (Table 3)
# Source text: the tail of treatment mice.
# (§1) Otherwise, the procedure was the same. The following Table 5 indicates the results.
# (§2) The following Table 6 provides the results.
# [2] = test system: skin overlying the tumor; assay: Skin reaction of skin overlying the tumor; type: in vivo, C3H/He mice
# Source text: The skin reaction is scored as follows:
# 1 = superficial inflammation;
# post injection. The skin reaction is scored as follows:
# as §1, §2
# [3] = Acute animal toxicity / survival; details: for Animal Survival: ADM 15 mg/kg, deaths usually within 2 days
# Experimental: The adriamycin in distilled water (4.45 mg/ml) was mixed with 36 mg/ml bovine collagen (BC) 1:1 to yield a composition ratio of 2.25 mg adriamycin:18 mg BC/ml.
SMILES,White Blood Cells/mm^3 ([1]; i.p.),White Blood Cells/mm^3 ([1]; i.t. (EPI 5 mg/kg where present)),"Skin Reaction ([2]; 5-FU 75 mg/Kg, i.p., 5 min before X-rays (1000 rad), score 0-3 (Table 9))","Skin Reaction ([2]; 5-FU 75 mg/Kg, i.p., no X-rays, score 0-3 (Table 9))","Skin Reaction ([2]; 5-FU 100 mg/kg, i.t. (EPI 5 mg/kg where present), Day 8, score 0 = no effect, 1 = superficial inflammation, 2 = scab, 3 = ulcer (Table 3))","Skin Reaction ([2]; ADM 15 mg/kg, i.t., Day 8, score 0 = no effect, 1 = superficial inflammation, 2 = scab, 3 = ulcer)","toxicity ([3]; 15 mg/kg, intratumoral injection)",Animal Survival ([3]; i.p.),Animal Survival ([3]; i.t.)
"O=c1[nH]cc(F)c(=O)[nH]1 [5-FU, 5-fluorouracil]",4.5 ± 0.6 Cells/mm^3 (×10^3),3.5 ± 0.5 Cells/mm^3 (×10^3),2,2,0,–,–,–,–
"COc1cccc2c1C(=O)c1c(O)c3c(c(O)c1C2=O)C[C@@](O)(C(=O)CO)C[C@@H]3O[C@H]1C[C@H](N)[C@H](O)[C@H](C)O1 [Free ADM, doxorubicin-HCl]",–,–,–,–,–,2.0,non-toxic,25%,100%
